# Results from the METLIN SMRT retention time set (Domingo-Almenara et al. 2019).
# Experiment: gradient 5% acetonitrile 3 min, to 50% in 2 min, to 85% in 15 min, held 3 min, 100 µL/min
# Conditions: column: Zorbax Extend-C18 2.1 x 50 mm; eluents: water / acetonitrile, 0.1% formic acid
# Method in brief: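 The system's dead and dwell volumes were 40 μL and 900 μL, with a Zorbax Extend-C18 column (2.1 × 50 mm, 1.8 μm) run at 100 μL/min in water and acetonitrile containing 0.1% formic acid each. Pure standards were analyzed in mixtures of ~100 molecules by HPLC–quadrupole time-of-flight mass spectrometry in positive and negative ionization mode. Retention time was assigned from computationally picked, manually inspected adduct peaks.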
row,Compound,RP-LC retention time
1,COc1ccc(NC(=O)Cc2nnc(-c3ccc4ncccc4c3)o2)cc1,685 s
2,CCN1CCN(C(=O)C2Cc3cc(S(=O)(=O)N4CCOCC4)ccc3N2C(C)=O)CC1 (stereo unspecified),578 s
3,CCN(CC)CCNC(=O)c1sc(COc2ccccc2)nc1C,638 s
4,O=C(c1cccc(Cl)c1)N1CCC(n2c(-c3ccoc3)nc3cccnc32)C1 (stereo unspecified),776 s
5,O=C(NCc1cc(F)ccc1F)C1CCc2nc(N3CCCCC3)ncc2C1 (stereo unspecified),743 s
6,Cc1c(CNCc2ccco2)c(C(=O)O)c(C)n1Cc1cccc(F)c1,684 s
7,Cc1cc(C(=O)NC2CCCCC2)nc2cc(-c3cccs3)nn12,1220 s
8,COCCCNC(=O)C1c2cc(OC)c(OC)cc2C(=O)N(C)C1c1cccs1 (stereo unspecified),676 s
9,Cn1cc2c3c(cccc31)CN(C(=O)C1CCC1)CC2,878 s
10,Cc1ccc2[nH]cc(CCN3CC(C(=O)N4CCCCCC4)CC3=O)c2c1 (stereo unspecified),800 s
11,O=C(CN1CCC(c2nc(-c3cccs3)no2)CC1)N1CCN(c2ccccc2)CC1,702 s
12,COC(=O)c1c(NCc2cccc(OC)c2)c2cc(Cl)ccc2[nH]c1=O,816 s
13,CC(C)c1nnc(-c2ccc(S(=O)(=O)NC3CCCCC3)o2)o1,904 s
14,Cc1cccn2c(Nc3ccc4c(c3)OCCO4)c(-c3ccc(Cl)cc3)nc12,747 s
15,Cc1noc(-c2nn(C)c3c2CN(C(=O)COc2ccc(F)cc2)CC3)n1,740 s
16,COC(=O)c1ccc(C(=O)NCC2CCN(Cc3ccccc3SC)CC2)cc1,567 s
17,Cc1cc(C2CCCN2C(=O)Nc2ccc(C)c(F)c2)no1 (stereo unspecified),818 s
18,COCCNC(=O)C1CCN(c2nc3ccc(-c4cccs4)nc3s2)CC1,774 s
19,CCN(CC)CCNC(=O)CCc1c(-c2ccc(Cl)cc2)nc2ccccn12,558 s
20,CCOc1ccc(Cl)cc1S(=O)(=O)N1CCC(C(=O)NCCOC)CC1,753 s
21,Cn1cc(-c2ccncc2)cc1C(=O)NCc1ccccc1C(F)(F)F,672 s
22,Cc1ccc(-c2ccnc3nc(-c4ccccc4)nn23)cc1,1020 s
23,CCn1nccc1C(=O)NCc1cccnc1OC,662 s

row,Compound,RP-LC retention time
1,Cc1cccc(-n2c(N)cc(=O)nc2SCC(=O)Nc2nc(-c3ccccc3)cs2)c1,738 s
2,CC1CCN(S(=O)(=O)c2ccc(-c3nnc(C(=O)NCCN4CCCC4)o3)cc2)CC1,686 s
3,CC(C)CN(Cc1cccnc1)C1CN(C(=O)NCc2ccc(F)cc2)C1,640 s
4,Cc1ccc(NC(=O)C2CCN(S(=O)(=O)c3cn(C(C)C)cn3)CC2)cc1F,823 s
5,Cc1ccc(CNC(=O)N2CCCC(C)(C(=O)NCc3ccc(C)cc3)C2)cc1 (stereo unspecified),947 s
6,O=C(CCC(=O)N1CCN(c2ccc(=O)n(-c3ccc(Cl)cc3)n2)CC1)N1CCOCC1,659 s
7,Cn1c(=O)c2nc(S(=O)(=O)CCC(=O)Nc3ccc(F)c(Cl)c3)n(C)c2n(C)c1=O,756 s
8,Cc1ccc(NS(=O)(=O)c2cc3n(c2)CCN(CC(C)C)C3=O)cc1F,840 s
9,O=C(Cc1nnc(-c2cccc(F)c2)o1)Nc1ccccc1,808 s
10,OC(COc1ccc(Cl)cc1Cl)CN1CCCC1 (stereo unspecified),570 s
11,COc1ccccc1CC(=O)N1CCN(c2ncnc3c2CCC3)CC1,621 s
12,Cc1cc(C)cc(NC(=O)CSc2ccc(N3CCCC(C(=O)NC4CC4)C3)nn2)c1 (stereo unspecified),690 s
13,Cc1cccc(-c2nc(Cc3noc(COc4ccccc4)n3)c(C)o2)c1,1170 s
14,O=C(Nc1ccc(N2CCOCC2)cc1)c1cc(C2CC2)n2nccc2n1,846 s
15,COc1ccccc1NC(=O)N1CCN(CCn2c(C(F)(F)F)nc3cccnc32)CC1,630 s
16,O=C(Cc1csc(NC(=O)NC2CCCC2)n1)NCCc1c[nH]c2ccccc12,754 s
17,CCc1nc(OCC(=O)NCc2ccccc2)c2ccccc2n1,756 s
18,COc1cccc(NC(=O)c2c(O)c3cccnc3n(-c3ccccc3)c2=O)c1,1220 s
19,COc1ccc(CC(=O)N2CCn3cnnc3C2)cc1Cl,621 s
20,CCOC(=O)C1CCC(CNC(=O)N2CCC(N3CCN(Cc4ccccc4)C(=O)C3=O)CC2)CC1 (stereo unspecified),734 s
21,Cc1nn(C)c(C)c1CCCN(C)C(=O)c1cccc(N2CCNC(c3ccccc3)C2)n1 (stereo unspecified),558 s
22,COc1ncc(C(=O)NCc2ccccc2Cl)cn1,737 s
23,CCOC(=O)c1nc(N2CCN(c3ccccc3OC)CC2)c2ccccc2n1,809 s

row,Compound,RP-LC retention time
1,Cc1ccccc1CNC(=O)C1(C)CCN(S(=O)(=O)c2ccc(C3CCCCC3)cc2)CC1,1310 s
2,Cc1oc(C(C)C)nc1C(=O)NCc1ccc(C(F)(F)F)cc1,1060 s
3,CCN1C(=O)Cc2cc(C(=O)NCc3cccs3)ccc21,704 s
4,O=C(Cn1cccc1-c1nnc(C2CCC2)o1)NCc1cccc(Br)c1,937 s
5,COc1ccc(Nc2nccc(NCCO)n2)cc1,610 s
6,Cc1cc(C)n(Cc2nc(-c3ccc(NC(=O)c4ccc(C#N)cc4)cc3)oc2C)n1,870 s
7,CCc1nc2cc(N3CCC(C(=O)NCCN4CCCC4)CC3)cnc2nc1CC,600 s
8,Cc1c(-c2cccc(NC(=O)c3cc(Br)ccc3Cl)c2)nc2ncccn12,716 s
9,Cn1nc(-c2nnc(-c3ccccc3F)o2)c2c1CCN(S(=O)(=O)c1ccc(Cl)cc1)C2,979 s
10,CCc1cccc(C)c1NC(=O)Cn1cnc2c(sc3nc(-c4ccccc4)ccc32)c1=O,1070 s
11,Cc1ccc(C)c2c(=O)c3c([nH]c12)CCN(CC(=O)Nc1ccccc1F)C3,641 s
12,COc1ccccc1-c1nc(-c2ccc3ncn(C)c3c2)no1,674 s
13,O=C1Nc2ccccc2OC1C(=O)N1CCC(Cc2ccccc2)CC1 (stereo unspecified),920 s
14,COc1cc(NC(=O)C2=C(C)OCCS2)c(Cl)cc1C(=O)N1CCN(c2ccccn2)CC1,668 s
15,CCc1cccc(-n2nnc(C(=O)NCCOC)c2-c2ccncc2)c1,715 s
16,COc1cc(C(C)=O)ccc1OCC(=O)NCCn1cnc(-c2ccc(F)cc2)cc1=O,661 s
17,O=C(CCNc1c(-c2cccc(F)c2)nc2cnccn12)NCc1ccc(F)cc1,755 s
18,CNC(=O)NCCC1CCN(S(=O)(=O)c2ccc(C)cc2)CC1,708 s
19,COC[C@@H](NC(C)=O)C(=O)NCc1ccccc1,641 s
20,CCc1nc(OCC(=O)Nc2ccc(Cl)c(Cl)c2)c2ccccc2n1,958 s
21,COc1cccc(CNC(=O)C2(c3ccc(NS(C)(=O)=O)cc3)CCCCC2)c1,867 s
22,CCn1cnc(S(=O)(=O)N2CCC(C(=O)Nc3ccc(C)cc3C)CC2)c1,741 s
23,O=C(NCCc1c[nH]c2ccccc12)c1cc(S(=O)(=O)N2CCSCC2)ccc1Cl,925 s

row,Compound,RP-LC retention time
1,CCOC(=O)c1c(C)[nH]c(CCC(=O)NC(C)c2ccc3c(c2)OCCO3)c1C (stereo unspecified),854 s
2,Cc1ccc(OCC(=O)Nc2ccc3c(c2)Sc2ncccc2C(=O)N3C)cc1,866 s
3,Cc1cnc(C(=O)N2CCC(c3noc(-c4ccccn4)n3)C2)cn1 (stereo unspecified),628 s
4,COc1ccccc1CNC(=O)CCC1CCN(c2cc(NC3CC3)ncn2)CC1,669 s
5,Cc1ccc(C)c(-c2cc3c(=O)n(Cc4nc(-c5ccc(F)cc5)no4)ncn3n2)c1,1210 s
6,COCCN1C(=O)c2ccccc2C(C(=O)NCCCN2CCCC(C)C2)C1c1cccs1 (stereo unspecified),643 s
7,Cc1nc(-n2cccc2)sc1C(=O)NCc1cc(-c2cccs2)on1,894 s
8,Cc1nn(-c2ccccc2)c(C)c1S(=O)(=O)N1CCC(C(=O)Nc2ccc(F)c(Cl)c2)CC1,1050 s
9,O=C(Cc1nnc2c(-c3nc(C4CC4)no3)cccn12)N1CCOCC1,609 s
10,CCOC(=O)C1C(=O)C(=O)N(C(C)C)C1C(=O)OCC (stereo unspecified),782 s
11,CCN(CC)C(=O)c1cnc2nc(C)ccc2c1Nc1ccc(S(N)(=O)=O)cc1,574 s
12,COCCCNC(=O)C1Cn2cccc2C(=O)N1CC(C)C (stereo unspecified),646 s
13,CCOc1ccc(-c2csc(Cc3nc(-c4cccc(Cl)c4)no3)n2)cc1,1340 s
14,O=C(c1cc2ccccc2[nH]1)N1CCC2(CC1)N=C(c1ccc(Br)cc1)NO2,959 s
15,CCc1noc(NC(C)=O)c1-c1ccc(OC)c(S(=O)(=O)NCc2ccc(OC)cc2)c1,758 s
16,Cc1ccc(OCC(=O)NCC2CCN(Cc3ccncc3)CC2)cc1,543 s
17,CCc1nn2c(CNC(=O)c3ccoc3)c(-c3ccccc3)nc2s1,808 s
18,Cc1cc(OCC(=O)NCc2ccco2)nc(N2CCC(C)CC2)n1,650 s
19,Cn1nc(CN2CCCC2)c2c1CCN(S(=O)(=O)c1ccc(F)cc1F)C2,622 s
20,O=C(NCCCN1CCCC1=O)c1ccc2nc(CCc3ccccc3)oc2c1,754 s
21,COc1ccccc1OCCNC(=O)C1CCc2nc(N3CCC(C)CC3)ncc2C1 (stereo unspecified),776 s
22,O=C(NC1CCCCCCC1)C1CCN(C(=O)c2ccccc2F)CC1,855 s
